Test results from patent US20180246121A1, “IMMUNOLOGICAL TEST METHOD AND IMMUNOLOGICAL TEST KIT” (Fuso Parmaceutical Industries, Ltd., priority 2015, published 2018).

Columns and labels:
[1] = target: T1, HMGB2 (Homo sapiens, UniProt P26583); assay: Competitive sandwich ELISA, immobilized anti-HMGB1 antibody HMa166 and HRP-labeled anti-HMGB1 antibody CP11-1: nonspecific reaction to HMGB2; type: binding; details: 1,820 ng/mL HMGB2; HMGB2 peptide 0 to 1.0 mg/mL; labeled CP11-1
T1 sequence (P26583 1-209): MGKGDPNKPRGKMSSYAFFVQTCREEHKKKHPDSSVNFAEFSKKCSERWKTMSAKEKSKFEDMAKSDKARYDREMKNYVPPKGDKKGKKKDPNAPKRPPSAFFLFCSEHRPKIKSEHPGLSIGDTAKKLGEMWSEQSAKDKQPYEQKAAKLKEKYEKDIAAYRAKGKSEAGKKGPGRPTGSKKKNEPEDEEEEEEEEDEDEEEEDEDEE
Protocol: A 100 μL portion of 10 μg/mL anti-HMGB1 antibody HMa166 was added to a 96-well ELISA plate (Maxsorp, Nunc). Then, immobilization was carried out according to a standard method, and blocking was performed by dispensing 200 μL of ImmunoBlock (DS Pharma Biomedical) diluted five-fold in purified water. After washing with TBSt (10 mM Tris pH 7.4, 150 mM NaCl, 0.05% Tween-20), HMGB2 was added at 1,400 ng/mL, the mixture was allowed to react at room temperature for two hours followed by washing with TBSt, and an HRP-labeled anti-HMGB1 antibody CP11-1 was added. Then, after washing, chromogenic substrate TMBZ (KPL) was added according to a standard method. The reaction was stopped using phosphoric acid, and the absorbance at 450 nm was measured using a microplate reader. Furthermore, as a competitive agent, commercially available anti-HMGB2 antibodies shown in Table 1 were added to the reaction system at 10 μg/mL, and impairment of the reaction due to anti-HMGB2 antibodies was observed.
Furthermore, 0 to 1,300 μg/mL HMGB2 was measured by sandwich ELISA using the MHa166 antibody and the CP11-1 antibody, which were obtained by immunization with HMGB1, to observe how much HMGB2 reacts in ELISA using the MHa166 antibody and the CP11-1 antibody. […]

[2] = test system: HMGB1; assay: Sandwich ELISA, immobilized HMa166 and HRP-labeled CP11-1: HMGB1 measurement in the presence of an HMGB2 absorbent; type: binding, human; details: 12.5 ng/mL HMGB1, HMGB2 peptide 0 to 1.0 mg/mL
Protocol: Then, the effects of each anti-HMGB2 antibody were observed.
By means of an ELISA system using immobilized anti-HMGB1 antibody MHa166 and an HRP-labeled anti-HMGB1 antibody CP11-1, it was examined whether nonspecific reactions by HMGB2 will be decreased when the reaction is achieved by 1,820 ng/mL HMGB2 in the presence of the HMGB2 peptide at 0 to 1.0 mg/mL (FIGS. 8B and 9B). In addition, effects of the coexisting HMGB2 peptide on HMGB1 measurements were similarly examined using 12.5 ng/mL HMGB1 (FIGS. 8A and 9A).

[3] = test system: HMGB1; assay: ELISA, immobilized HMa166 and HRP-labeled HMGB1 polyclonal antibody No. 12: HMGB1 measurement; type: binding, human; details: 50 ng/mL HMGB1; peptide 0.5 mg/mL; labeled polyclonal antibody No. 12
Protocol: (§1) Anti-HMGB1 antibody HMa166 at 10 μg/mL was immobilized onto a 96-well ELISA plate (Maxsorp, Nunc), and blocking was performed by dispensing 200 μL of ImmunoBlock (DS Pharma Biomedical) diluted five-fold in purified water. After washing with TBSt (10 mM Tris pH 7.4, 150 mM NaCl, 0.05% Tween-20), HMGB1 was added at 50 ng/mL or HMGB2 was added at 1,820 ng/mL, […] The mixture was allowed to react at 37° C. for two hours followed by washing with TBSt. After adding HMGB1 polyclonal antibody No. 12 or No. 14 obtained by immunizing rabbits with a synthetic human HMGB1 peptide or a recombinant human HMGB1, each of which had been labeled with HRP, the mixture was reacted at room temperature for one hour. After the reaction, the plate was washed with TBSt, and chromogenic substrate TMBZ (KPL) was added according to a standard method, the reaction was stopped with phosphoric acid, and the absorbances at 450 nm were measured using a microplate reader, […]
(§2) Next, whether similar effects can be obtained with antibodies other than CP11-1 was examined. […]

[4] = target: T1, HMGB2; assay: ELISA, immobilized HMa166 and HRP-labeled HMGB1 polyclonal antibody No. 12: nonspecific reaction to HMGB2; type: binding; details: 1,820 ng/mL HMGB2; peptide 0.5 mg/mL; labeled polyclonal antibody No. 12
[5] = test system: HMGB1; assay: ELISA, immobilized HMa166 and HRP-labeled HMGB1 polyclonal antibody No. 14: HMGB1 measurement; type: binding, human; details: 50 ng/mL HMGB1; peptide 0.5 mg/mL; labeled polyclonal antibody No. 14
Protocol: as §1, §2

[6] = target: T1, HMGB2; assay: ELISA, immobilized HMa166 and HRP-labeled HMGB1 polyclonal antibody No. 14: nonspecific reaction to HMGB2; type: binding; details: 1,820 ng/mL HMGB2; peptide 0.5 mg/mL; labeled polyclonal antibody No. 14
Protocol: Furthermore, whether commercially available anti-HMGB2 antibodies can suppress nonspecific reactions to HMGB2 even when the labelled antibody is changed was examined. Anti-HMGB1 antibody HMa166 at 10 μg/mL was immobilized onto a 96-well ELISA plate (Maxsorp, Nunc), and blocking was performed by dispensing 200 μL of ImmunoBlock (DS Pharma Biomedical) diluted five-fold in purified water. After washing with TBSt (10 mM Tris pH 7.4, 150 mM NaCl, 0.05% Tween-20), HMGB1 was added at 50 ng/mL or HMGB2 was added at 1,820 ng/mL, […] The mixture was allowed to react at 37° C. for two hours followed by washing with TBSt. After adding HMGB1 polyclonal antibody No. 12 or No. 14 obtained by immunizing rabbits with a synthetic human HMGB1 peptide or a recombinant human HMGB1, each of which had been labeled with HRP, the mixture was reacted at room temperature for one hour. After the reaction, the plate was washed with TBSt, and chromogenic substrate TMBZ (KPL) was added according to a standard method, the reaction was stopped with phosphoric acid, and the absorbances at 450 nm were measured using a microplate reader, to observe impairment of the reaction due to the anti-HMGB2 antibody.
as §2

[7] = test system: HMGB1; assay: ELISA, immobilized MHa166 and HRP-labeled monoclonal antibody HMa176: HMGB1 measurement; type: binding, human; details: 50 ng/mL HMGB1, peptide 0.5 mg/mL
Protocol: Similar examinations were carried out for systems using another monoclonal antibody. It was examined how the reactions achieved by 50 ng/mL HMGB1 change when MHa176 antibody, which was obtained by immunization with HMGB1, were HRP-labeled and an HMGB2 peptide was allowed to coexist at a concentration of 0.5 mg/mL in an ELISA system with the immobilized anti-HMGB1 antibody MHa166 (FIG. 12A). Furthermore, effects of the coexisting HMGB2 peptide on HMGB2 measurements were similarly examined using 1,820 ng/mL HMGB2 (FIG. 12B).

Sequence | absorption of nonspecific reaction to HMGB2 by HMGB2 peptide [1] | effect of HMGB2 peptide on measured values of HMGB1 [2] | effect of HMGB2 peptide on measured values of HMGB1 ([2]; listed as HM2-2 peptide) | enhancement of the reaction with HMGB1 [3] | effect of HMGB2 peptide on HMGB2 measurements [4] | effect of HMGB2 peptide on HMGB1 measurements [5] | neutralizing effects on HMGB2 [6] | effect of HMGB2 peptide on reactivity of HMGB1 [7] | effect of HMGB2 peptide on HMGB1 measurements [3]
CREEHKKKHPDSSVNFAEFS [HM2-2, HMGB2-derived peptide, 23rd to 42nd amino acids of full-length human HMGB2] | absorbed nonspecific reactions to HMGB2 in a concentration-dependent manner | concentration-dependent reaction enhancement | concentration-dependent enhancement of the reaction | approximately 1.6 fold | attenuated | increased the reactivity of HMGB1 | not observed | enhancement of reactivity of HMGB1 | –
MGKGDPNKPRGKMSSYA [HM2-1, HMGB2-derived peptide, 1st to 17th amino acids of full-length human HMGB2] | able to absorb nonspecific reaction to HMGB2 in a concentration-dependent manner | hardly affected | – | – | did not affect | did not have any influence | not observed | – | did not affect
